Columns and labels:
[1] = test system: Lgr5-positive cochlear cells; assay: Expansion of Lgr5-positive cells (cochlear stem cell expansion, Lgr5-GFP flow cytometry); format: cell-based; conditions: 240 h; Lgr5-GFP mouse cochlear cells, 10 days in culture; read-out: Potency (Lgr5-positive cell expansion)
Method: Lgr5-EGFP-IRES-Cre-ER mice (Barker et al., 2007) (http://jaxmice.jax.org/strain/008875.html) are used to analyze the effects of small molecules on cochlear stem cell expansion.
Isolation of stem cells from the inner ear: All animal studies are conducted under an approved institutional protocol according to National Institutes of Health guidelines. For experiments with neonatal mice (postnatal days 1-3), the cochleae are dissected in HBSS and the organ of Corti are separated from the stria vascularis and the modiolus. The organs of Corti are then treated with Cell Recovery Solution (Corning) for 1 h to separate cochlear epithelium from the underlying mesenchyme. Epithelia are then collected and treated with TrypLE (Life Technologies) for 15-20 minutes at 37° C. Single cells obtained by mechanical trituration are filtered (40 μm) and suspended in Matrigel (Corning) for 3D culture. […]
Lgr5-positive cells are quantified after 10 days (D10) in culture in multiple conditions. […] The cells are then stained with propidium iodide (PI) and are analyzed using a flow cytometer for Lgr5-GFP expression. The number of GFP-positive cells and the percentage of GFP-positive cells are quantified.

recombinant human GSK3β = recombinant human GSK3β (Homo sapiens, UniProt P49841); assay: in vitro enzymatic assay (Kinase-Glo Max) for inhibition of GSK3β; format: biochemical; conditions: 10 uM ATP
Method: (§1) Enzymatic activities of compounds of the present disclosure are tested with recombinant human GSK3 using an in vitro enzymatic assay for inhibition GSK3α and GSK3β.
(§2) The assay was performed using Kinase-Glo Max luminescence kinase assay kit (Promega). It measures kinase activity by quantitating the amount of ATP remaining in solution following a kinase reaction. The luminescent signal from the assay is correlated with the amount of ATP present and is inversely correlated with the amount of kinase activity. The compounds were diluted in 10% DMSO) and 5 μl of the dilution was added to a 50 μl reaction so that the final concentration of DMSO is 1% in all of reactions. The enzymatic reactions were conducted at 30° C. for 40 minutes. […] After the enzymatic reaction, 50 μl of Kinase-Glo Max Luminescence kinase assay solution (Promega) was added to each reaction and incubate the plate for 15 minutes at room temperature. Luminescence signal was measured using a BioTek Synergy 2 microplate reader.
(§3) Kinase activity assays were performed in duplicate at each concentration. The luminescence data were analyzed using the computer software, Graphpad Prism. The difference between luminescence intensities in the absence of Kinase (Lut) and in the presence of Kinase (Luc) was defined as 100% activity (Lut−Luc). […]

recombinant human GSK3α = recombinant human GSK3α (Homo sapiens, UniProt P49840); assay: in vitro enzymatic assay (Kinase-Glo Max) for inhibition of GSK3α; format: biochemical; conditions: 10 uM ATP, 0.1 mg/ml GSKtide, 30° C. 40 minutes; read-out: Potency GSK-3alpha
Method: as §1, §2, §3

Chain of recombinant human GSK3β (P49841 whole entry): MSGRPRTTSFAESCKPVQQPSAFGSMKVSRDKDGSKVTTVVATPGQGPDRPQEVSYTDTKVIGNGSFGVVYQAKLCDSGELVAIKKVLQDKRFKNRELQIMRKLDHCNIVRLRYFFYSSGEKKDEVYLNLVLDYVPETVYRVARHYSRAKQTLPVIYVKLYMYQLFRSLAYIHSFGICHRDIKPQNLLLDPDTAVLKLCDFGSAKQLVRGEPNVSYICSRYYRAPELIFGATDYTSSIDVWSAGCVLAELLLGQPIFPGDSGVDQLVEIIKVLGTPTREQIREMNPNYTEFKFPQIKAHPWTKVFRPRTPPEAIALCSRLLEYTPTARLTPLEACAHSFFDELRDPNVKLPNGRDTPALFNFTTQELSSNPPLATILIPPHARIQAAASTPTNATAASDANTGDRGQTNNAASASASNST
Chain of recombinant human GSK3α (P49840 whole entry): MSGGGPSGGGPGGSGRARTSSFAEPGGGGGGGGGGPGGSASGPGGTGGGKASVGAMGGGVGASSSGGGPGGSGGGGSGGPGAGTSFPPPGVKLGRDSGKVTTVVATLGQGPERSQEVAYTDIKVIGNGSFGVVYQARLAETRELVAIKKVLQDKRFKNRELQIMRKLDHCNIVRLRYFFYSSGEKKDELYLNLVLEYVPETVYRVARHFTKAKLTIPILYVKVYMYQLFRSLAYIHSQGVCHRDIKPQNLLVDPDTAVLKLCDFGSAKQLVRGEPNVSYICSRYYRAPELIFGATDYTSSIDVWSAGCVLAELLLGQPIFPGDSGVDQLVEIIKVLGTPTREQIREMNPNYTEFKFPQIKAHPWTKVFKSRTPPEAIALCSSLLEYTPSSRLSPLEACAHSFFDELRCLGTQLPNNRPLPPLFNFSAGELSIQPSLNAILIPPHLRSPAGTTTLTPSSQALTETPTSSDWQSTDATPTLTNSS

**Q.** With `O=C(N1CCCCC1)N1CCn2cc(-c3[nH][nH]c(=O)c3-c3cnc4ccccn34)c3cc(F)cc(c32)C1` [Compound I-4] as the compound, how does the EC50 [1] read?
**A.** > 10 µM

**Q.** And the IC50 (recombinant human GSK3β; 0.1 mg/ml GSKtide, 30° C. 40 minutes, read-out: Potency GSK-3beta)?
**A.** 0.706 µM

**Q.** What about the IC50 (recombinant human GSK3α) of the same compound?
**A.** 0.348 µM

**Q.** With `O=C(N1CCCCC1)N1CCn2cc(-c3c(-c4cnc5ccccn45)[nH][nH]c3=O)c3cc(F)cc(c32)C1` [Compound I-52] as the compound, how does the EC50 [1] read?
**A.** > 10 µM

**Q.** And the inhibition at 10 µM (recombinant human GSK3β; at 10 uM compound, read-out: Potency GSK-3beta: % inhibition)?
**A.** 34%

**Q.** And the IC50 (recombinant human GSK3α)?
**A.** 10 µM

Reference: patent publication US20200316089A1, “1,2-DIHYDRO-3H-PYRAZOL-3-ONE COMPOUNDS AND METHODS OF USING SAME” (Frequency Therapeutics, Inc., priority 2017, published 2020)
